Assay results taken from patent publication US7655696B2, “Anti-tumor composition” (Ajinomoto Co., Inc., priority 1998, dated 2010).
Entries after “also recorded” stand apart in the source; their conditions may differ. Read-outs that look alike come from different tables or passages of the source.

How the values were obtained:
[1] = tested on: murine colonic tumor, colon 26; assay: Antitumor Activity Test (1): complete regression of colon 26 tumor in CDF1 mice (Example 1); format: in vivo; conditions: for Number of instances of complete regression of tumors: palpation on 60th day; for Complete regression (curing) of tumors in mice, in words: in combination with Cisplatin
Experimental: Antitumor effects: Complete regression of the colonic tumor was determined by palpation. Subjects in which the tumor has not been ascertained by palpation on the 60th day were deemed to have their tumors cured completely.

[2] = for Rate of Body Weight Change: 21st day vs 7th day; for Body weight decrease, in words: in combination with Cisplatin
Experimental: Methodology. 10 mg of a murine colonic tumor, colon 26, was inoculated under the skin of the back of CDF1 mice (day 0). After one week, the tumor was measured to calculate the volume of the tumor and the mice were classified into several groups (each group: n=5) and administration of the stilbene derivative and Cisplatin was started. On days 7, 11 and 15, the tumor-inoculated mice were bolusly injected under the skin of their backs and into their tail veins with 1 mg of the stilbene derivative of formula (3) in 1 ml of physiological saline solution and 0.5 mg of Cisplatin (“randa Inj”) in a volume of 1 ml. Control and comparative groups of mice were similarly injected with the other drug combinations described in Table 1. The comparative drug Vindesine is an antitumor drug used in combination with Cisplatin by Garalla et al. VP-16 is also a chemotherapeutic drug which is often used clinically in combination with Cisplatin.
As indicated in Table 1 the term [−CDDP] means that Cisplatin was not administered at all. The term [+CDDP] means that Cisplatin was administered in an amount of 5 mg/kg/day. The term [n.d.] means that no testing was performed.
Safety. The rate of body weight change was used as a measure of safety as significant loss of body weight is undesirable in cancer patients. Body weight change was calculated using the following equation: Rate of body weight change (%)=[{(body weight−weight of the tumor) at the 21st day}−{(body weight−weight of the tumor) at the 7th day}]/{body weight−weight of the tumor) at the 7th day}×100.
Using the above equation, the rate of body weight change at the 21st day was calculated.

[3] = tested on: colonic tumor of mouse, colon 26; assay: Antitumor Activity Tests (2) and (3): complete regression of colon 26 tumor in CDF1 mice (Example 2); format: in vivo; conditions: palpation on 60th day
Experimental: (§1) Stilbene derivatives of formulas (3), (4) and (5), and Cisplatin and Carboplatin were bolusly injected into the tail vein on the 7th, 11th and 15th days as described in Tables 3 through 6 below.
Antitumor effects: Complete regression of the colonic tumor was determined by palpation. Subjects in which the tumor had not been ascertained by palpation on the 60th day were deemed to have their tumors completely cured.
(§2) The terms: [+CBDCA] and [+CDDP] indicate that 50 mg/kg/day of carboplatin or 5 mg/kg/day of cisplatin were administered, respectively. The terms: [−CBDCA] and [−CDDP] indicate that no carboplatin or cisplatin were administered. The dosages of cisplatin and carboplatin denote the maximum dosages without death due to toxicity in the administration schedule in the present embodiment.

[4] = Safety Tests (2) and (3): rate of body weight change in colon 26 tumor-bearing CDF1 mice (Example 2); format: in vivo; conditions: 21st day vs 7th day
Experimental: as §1, §2
Body weight change on the 21st day was calculated using the equation described in Example 1.

[5] = Solubility in water (statement)
[6] = Control, +CDDP: cisplatin alone 5 mg/kg/day
[7] = +CDDP (cisplatin 5 mg/kg/day), sample 5 mg/kg/day
[8] = Control, +CBDCA: carboplatin alone 50 mg/kg/day

## N.N.[Cl][Pt][Cl] [CDDP, cis-diamminedichloroplatinum (II), reference compound]
[1]; Control, +CDDP: Cisplatin alone 5 mg/kg/day on days 7, 11, 15
  Number of instances of complete regression of tumors: 0/5
[2]; [6]
  Rate of Body Weight Change: −11.1%
[3]; [6]
  Number of instances of complete regression of tumors: 0/6
[4]; [6]
  Rate of Body Weight Change: −11.4%

## CC[C@]1(O)C[C@@H]2CN(CCc3c([nH]c4ccccc34)[C@@](C(=O)OC)(c3cc4c(cc3OC)N(C)[C@H]3[C@@](O)(C(N)=O)[C@H](O)[C@]5(CC)C=CCN6CC[C@]43[C@@H]65)C2)C1 [Vindesine]
[1]; +CDDP (Cisplatin 5 mg/kg/day), sample 2 mg/kg/day on days 7, 11, 15
  Number of instances of complete regression of tumors: 0/5
[1]
  Complete regression (curing) of tumors in mice, in words: complete curing of tumors in mice has not been observed; also recorded: complete tumor regression was not observed

## COc1cc([C@@H]2c3cc4c(cc3[C@@H](O[C@@H]3O[C@@H]5CO[C@@H](C)O[C@H]5[C@H](O)[C@H]3O)[C@H]3COC(=O)[C@H]23)OCO4)cc(OC)c1O [VP-16, reference compound]
[1]; +CDDP (Cisplatin 5 mg/kg/day), sample 30 mg/kg/day on days 7, 11, 15
  Number of instances of complete regression of tumors: 0/5
[1]
  Complete regression (curing) of tumors in mice, in words: complete tumor regression was not observed
[1]; −CDDP, sample 30 mg/kg/day on days 7, 11, 15
  Number of instances of complete regression of tumors: 0/5
[2]; +CDDP (Cisplatin 5 mg/kg/day), sample 30 mg/kg/day
  Rate of Body Weight Change: −9.9%
[2]
  Body weight decrease, in words: high rates of body weight loss
[2]; −CDDP, sample 30 mg/kg/day
  Rate of Body Weight Change: −1.0%

## COc1ccc(/C=C\c2cc(OC)c(OC)c(OC)c2)cc1NC(=O)C(N)CO [Compound (3), (Z)-1-(3-amino-4-methoxyphenyl)-2-(3,4,5-trimethoxyphenyl)-ethene-L-serine amide]
[1]; +CDDP (Cisplatin 5 mg/kg/day), sample 5 mg/kg/day on days 7, 11, 15
  Number of instances of complete regression of tumors: 1/5
[1]; +CDDP (Cisplatin 5 mg/kg/day), sample 10 mg/kg/day on days 7, 11, 15
  Number of instances of complete regression of tumors: 4/5
[1]; −CDDP, sample 10 mg/kg/day on days 7, 11, 15
  Number of instances of complete regression of tumors: 0/5
[2]; +CDDP (Cisplatin 5 mg/kg/day), sample 10 mg/kg/day
  Rate of Body Weight Change: −1.9%
[2]; [7]
  Rate of Body Weight Change: −4.2%
[2]
  Body weight decrease, in words: did not cause significant decreases in body weight
[2]; −CDDP, sample 10 mg/kg/day, tumor weight subtracted
  Rate of Body Weight Change: −7.7%
[3]; +CBDCA (carboplatin 50 mg/kg/day), sample 20 mg/kg/day, tail vein, 7th, 11th, 15th days
  Number of instances of complete regression of tumors: 1/6
[3]; −CBDCA, sample 20 mg/kg/day, tail vein, 7th, 11th, 15th days
  Number of instances of complete regression of tumors: 0/6
[4]; +CBDCA (carboplatin 50 mg/kg/day), sample 20 mg/kg/day
  Rate of Body Weight Change: 1.8%
[4]; −CBDCA, sample 20 mg/kg/day
  Rate of Body Weight Change: −7.4%
[5]
  Solubility in water, in words: soluble in water

## COc1ccc(/C=C(/C#N)c2cc(OC)c(OC)c(OC)c2)cc1N [Compound (4)]
[3]; +CDDP (cisplatin 5 mg/kg/day), sample 5 mg/kg/day, tail vein, 7th, 11th, 15th days
  Number of instances of complete regression of tumors: 4/6
[3]; −CDDP, sample 5 mg/kg/day, tail vein, 7th, 11th, 15th days
  Number of instances of complete regression of tumors: 0/6
[4]; [7]
  Rate of Body Weight Change: −13.9%
[4]; −CDDP, sample 5 mg/kg/day
  Rate of Body Weight Change: −7.0%

## [NH2][Pt]1([NH2])[O]C(=O)C2(CCC2)C(=O)[O]1 [CBDCA, diammine(1,1-cyclobutane dicarboxylate) platinum (II), reference compound]
[3]; [8]
  Number of instances of complete regression of tumors: 0/6
[4]; [8]
  Rate of Body Weight Change: −9.6%

## COc1ccc(/C=C\c2cc(OC)c(OC)c(OC)c2)cc1N [Compound (5)]
[3]; +CDDP (cisplatin 5 mg/kg/day), sample 20 mg/kg/day, tail vein, 7th, 11th, 15th days
  Number of instances of complete regression of tumors: 6/6
[3]; −CDDP, sample 20 mg/kg/day, tail vein, 7th, 11th, 15th days
  Number of instances of complete regression of tumors: 0/6
[4]; +CDDP (cisplatin 5 mg/kg/day), sample 20 mg/kg/day
  Rate of Body Weight Change: −0.3%
[4]; −CDDP, sample 20 mg/kg/day
  Rate of Body Weight Change: −2.1%
